Experiments:
tomato GAME25 [1] = experiment: In vitro assay of recombinant tomato GAME25 (Sf9 microsomes, NAD+); assay type: biochemical, Solanum lycopersicum; conditions: 100 μM substrate, NAD+ 150 μM, pH 7.4, 37° C., 4 hrs; LC-MS
Protocol: (§1) For enzyme assay experiments, an additional MS-MS analysis with a collision energy ramp from 20 to 50 eV was performed to identify the structures of the enzymatic reaction products. The solanid-4-en-3-one product was identified based on the comparison of its retention time and MS-MS spectrum to those measured for its corresponding standard. Another three products (tomatid-4-en-3-one, solasod-4-en-3-one and diosgen-4-en-3-one) were putatively assigned as follows: first, elemental composition based on accurate masses and the isotopic pattern was calculated using the MassLynx software. Then the MS-MS fragmentation pattern was analyzed, and the fragments were assigned applying the fragmentation rules for steroid-based compounds.
(§2) Each expression vector construct was co-transfected with the ProGreen GFP linearized baculovirus DNA (AB vector) to generate the recombinant viruses in Spodoptera frugiperda (Sf9) insect cells. Infection efficiency was monitored by fluorescence of recombinant GFP viruses infected cells. Sf9 cells were grown in ESF921, protein free culture medium (Expression Systems). Three days post-infection cells were collected and washed twice in PBS. Microsomal fractions were isolated by suspending the cell pellet in 20 mM potassium phosphate buffer pH 7.25, 20% (v/v) glycerol, 1 mM EDTA and 1 mM DTT. The resuspended cells were sonicated, and the cell debris was removed by centrifugation at 10,000×g for 15 min. The supernatant was further centrifuged at 100,000×g for 60 min. The pellet containing the microsomal fractions was homogenized in lysis buffer. GAME25 was expressed with a myc-tag at the C-terminus. The isolated microsomal fractions were analyzed by SDS-PAGE and immune-blot with c-myc antibodies (A2S Technologies Ltd.).
(§3) The steroidal alkaloid aglycones dehydrotomatidine, solanidine and solasodine as well as their glycosylated forms (i.e. SGAs) α-tomatine, α-solanine, α-chaconine and α-solamargine were used as substrates for GAME25 enzyme assays. In vitro assays for the tomato and potato recombinant GAME25 enzymes were performed as follows: Briefly, microsomal fractions of Sf9 cells expressing tomato or potato GAME25 proteins (0.2 mg total protein was used per reaction) were separately incubated in sodium phosphate buffer (pH 7.4) with 100 μM of each individual substrate (details are mentioned above), DTT (5 mM) and NAD^+ (150 μM) at 37° C. for 4 hrs. The reactions were stopped by addition of 300 μl of 80% methanol and 0.1% formic acid, followed by brief vortex and sonication for 15 min. Finally, the extracts were centrifuged for 15 min at 14,000×g, filtered through 0.22 μm filters, and analyzed by LC-MS (see Plant extracts preparation and targeted profiling of steroidal metabolites section above). Sf9 cells (without the baculovirus vector) microsomes were used in control enzyme reactions.

potato GAME25 = experiment: In vitro assay of recombinant potato GAME25 (Sf9 microsomes, NAD+); assay type: biochemical, Solanum tuberosum; conditions: 100 μM substrate, NAD+ 150 μM, pH 7.4, 37° C., 4 hrs; LC-MS
Protocol: as §1, §2, §3

SlGAME31 = experiment: Enzymatic activity assay of recombinant SlGAME31 (hydroxylation of SA/SGAs); assay type: biochemical, Solanum lycopersicum
Protocol: (§4) GAME31 was amplified from cDNA (SEQ ID NO: 17) and cloned into pET28 vector by restriction free (RF) cloning as described previously (Unger et al., 2010, J Struct Biol. 172:34-44).
(§5) The resulting plasmids were verified by sequencing and transformed to E. coli BL21 DE3. For isolation of the GAME31-His tagged enzymes, fresh overnight cultures were diluted 1:100 in 1000 ml of LB medium (Formedium) with 50 μg/ml kanamycin and incubated at 37° C. and 250 rpm until an A600 nm of 0.5 was reached. Subsequently, for induction of expression of the recombinant proteins, IPTG was added to a final concentration of […] and the incubation was continued overnight at 16° C. and 250 rpm. Then cells were harvested by centrifugation at 10,000×g and bacteria were lysed by sonication in a buffer (pH 7.4) containing 0.02 M NaH2PO4 0.02 M, 0.5 M NaCl, and SIGMAFAST protease inhibitor tablets (Sigma-Aldrich) and benzonase nuclease (Sigma-Aldrich) according to manufacturer's instructions. Lysed cultures were centrifuged, and the soluble fraction was purified by nickel affinity chromatography which was operated with an AKTA liquid chromatography system (AKTA avant, GE Healthcare) according to the manufacturer's instructions. Proteins were stored at −80° C. until further analysis.
All the SA/SGAs substrates were prepared at a concentration of 1 mg/ml, dissolved in methanol, except dehydrotomatine that was prepared in DMSO. The enzymatic activity was performed according to Kawai et al. (2014) Evolution and diversity of the 2-oxoglutarate-dependent dioxygenase superfamily in plants. Plant J. 78: 328-43. Briefly, the standard full reaction (100 μL) consisted of 10 mM L-ascorbic acid, 10 mM α-ketoglutaric acid, 500 μM FeSO4, 20 μM substrate, 50 mM potassium phosphate buffer (pH 7.5) and purified enzyme. All the components, except the enzyme, were pre-incubated for 10 min at 30° C., after which the reaction was started by addition of the enzyme. After incubation at 30° C. for 1 h, the reaction was stopped by freezing in liquid nitrogen Finally, the reaction was mixed with 300 μL methanol, extracted and analyzed by UPLC-qTOF-MS as described above.

SmGAME31 = experiment: Enzymatic activity assay of recombinant SmGAME31 (hydroxylation of SA/SGAs); assay type: biochemical, Solanum melongena; conditions: full reaction, 20 μM substrate, 30° C., 1 h
Protocol: as §4
as §5, with “Lysed cultures were centrifuged, and the soluble fraction was purified by nickel affinity chromatography which was operated with an AKTA liquid chromatography system (AKTA avant, GE Healthcare) according to the manufacturer's instructions. Proteins were stored at −80° C. until further analysis.” left out
All the SA/SGAs substrates were prepared at a concentration of 1 mg/ml, dissolved in methanol, except dehydrotomatine that was prepared in DMSO. […] After incubation at 30° C. for 1 h, the reaction was stopped by freezing in liquid nitrogen Finally, the reaction was mixed with 300 μL methanol, extracted and analyzed by UPLC-qTOF-MS as described above.

tomato GAME25 [2] = experiment: In vitro assay of purified recombinant tomato GAME25 expressed in E. coli; assay type: biochemical, Solanum lycopersicum; conditions: purified enzyme (5 μg), NAD+ cofactor
Protocol: as §1
GAME25 and GAME35 genes were cloned into pET28 vector separately and expressed in E. coli BL21 (DE3). Bacterial cells were grown in LB medium at 37° C. When cultures reached A600=0.6, protein expression was induced with 200 μM of isopropyl-1-thio-β-d-galactopyranoside (IPTG) at 15° C. for 24 h. Bacterial cells were lysed by sonication in 50 mM Tris-HCl pH 7.5, 500 mM NaCl, 1 mM PMSF and protease inhibitor cocktail (Calbiochem). An aliquot of whole cell extract was kept for further analysis. […] The whole cell extract and the eluted fractions were analyzed by SDS-PAGE staining with InstatBlue and by Western blot with HRP conjugated anti-His antibodies (Sigma). […]

plant cells = conditions: cited from earlier work
GAME35 = GAME35 enzyme assay; assay type: biochemical, tomato; conditions: 150 μM substrate, NADH or NADPH, 30° C., 3 hrs
Protocol: GAME25 and GAME35 genes were cloned into pET28 vector separately and expressed in E. coli BL21 (DE3). Bacterial cells were grown in LB medium at 37° C. When cultures reached A600=0.6, protein expression was induced with 200 μM of isopropyl-1-thio-β-d-galactopyranoside (IPTG) at 15° C. for 24 h. Bacterial cells were lysed by sonication in 50 mM Tris-HCl pH 7.5, 500 mM NaCl, 1 mM PMSF and protease inhibitor cocktail (Calbiochem). An aliquot of whole cell extract was kept for further analysis. Soluble protein was purified using Ni-NTA agarose beads (Adar Biotech) and eluted with 500 mM imidazole in buffer containing 50 mM NaH2PO4 pH-7.5 and 300 mM NaCl. The whole cell extract and the eluted fractions were analyzed by SDS-PAGE staining with InstatBlue and by Western blot with HRP conjugated anti-His antibodies (Sigma).
Purified GAME35 protein (5 μg) was incubated with solanid-4-en-3-one substrate (150 μM), DTT (1 mM), NADH or NADPH (500 μM) in sodium phosphate buffer (pH 7.4) at 30° C. for 3 hrs. The reactions were stopped by addition of 250 μl of 80% methanol and 0.1% formic acid, and followed by brief vortex and sonication for 15 min. Finally, the extracts were centrifuged for 10 min at 13,000×g and filtered through 0.22 μm filters, and analyzed by LC-MS, as described in the section above (plant extracts preparation and targeted profiling of steroidal metabolites). […]

animals and humans = conditions: studies in animal models; cited from earlier work
[3] = full reaction: ketoglutaric acid, ascorbic acid, FeSO4, 20 μM substrate, 30° C., 1 h

Molecule: C[C@@H]1CC[C@@]2(NC1)O[C@H]1C[C@H]3[C@@H]4CC=C5C[C@@H](O[C@@H]6O[C@H](CO)[C@@H](O[C@@H]7O[C@@H](C)[C@H](O)[C@@H](O)[C@H]7O)[C@H](O)[C@H]6O[C@@H]6O[C@@H](C)[C@H](O)[C@@H](O)[C@H]6O)CC[C@]5(C)[C@H]4CC[C@]3(C)[C@H]1[C@@H]2C [α-solamargine]
- activity with substrate / product formed (tomato GAME25 [1]): no activity
- activity with substrate / product formed (potato GAME25): no activity
- hydroxylation of substrate (SlGAME31; [3]): generating hydroxysolamargine
- hydroxylation of substrate (SmGAME31): performed hydroxylation

Molecule: cholestenol
- activity with substrate / product formed (tomato GAME25 [1]): not reactive
- activity with substrate / product formed (potato GAME25): not reactive

Molecule: C[C@H]1CC[C@@H]2[C@@H](C)[C@H]3[C@H](C[C@H]4[C@@H]5CC=C6C[C@@H](O)CC[C@]6(C)[C@H]5CC[C@]34C)N2C1 [solanidine]
- activity with substrate / product formed (tomato GAME25 [1]): solanid-4-en-3-one
- activity with substrate / product formed (potato GAME25): solanid-4-en-3-one
- product formed from substrate (tomato GAME25 [2]): solanid-4-en-3-one

Molecule: C[C@H]1CC[C@]2(NC1)O[C@H]1C[C@H]3[C@@H]4CC=C5C[C@@H](O)CC[C@]5(C)[C@H]4CC[C@]3(C)[C@H]1[C@@H]2C [dehydrotomatidine]
- activity with substrate / product formed (tomato GAME25 [1]): tomatid-4-en-3-one
- activity with substrate / product formed (potato GAME25): tomatid-4-en-3-one
- toxicity to plant cells (plant cells): highly toxic

Molecule: C[C@H]1CC[C@@H]2[C@@H](C)[C@H]3[C@H](C[C@H]4[C@@H]5CC=C6C[C@@H](O[C@@H]7O[C@H](CO)[C@H](O)[C@H](O[C@@H]8O[C@H](CO)[C@@H](O)[C@H](O)[C@H]8O)[C@H]7O[C@@H]7O[C@@H](C)[C@H](O)[C@@H](O)[C@H]7O)CC[C@]6(C)[C@H]5CC[C@]34C)N2C1 [α-solanine]
- activity with substrate / product formed (tomato GAME25 [1]): no activity
- activity with substrate / product formed (potato GAME25): no activity

Molecule: C[C@@H]1CC[C@@]2(NC1)O[C@H]1C[C@H]3[C@@H]4CC=C5C[C@@H](O)CC[C@]5(C)[C@H]4CC[C@]3(C)[C@H]1[C@@H]2C [solasodine]
- activity with substrate / product formed (tomato GAME25 [1]): solasod-4-en-3-one
- activity with substrate / product formed (potato GAME25): solasod-4-en-3-one

Molecule: C[C@H]1CC[C@]2(NC1)O[C@H]1C[C@H]3[C@@H]4CC[C@H]5C[C@@H](O)CC[C@]5(C)[C@H]4CC[C@]3(C)[C@H]1[C@@H]2C [tomatidine]
- hydroxylation of substrate (SlGAME31; [3]): did not show activity
- hydroxylation of substrate (SmGAME31): did not hydroxylate
- toxicity to plant cells (plant cells): highly toxic

Molecule: C[C@@H]1CC[C@@]2(OC1)O[C@H]1C[C@H]3[C@@H]4CC=C5C[C@@H](O)CC[C@]5(C)[C@H]4CC[C@]3(C)[C@H]1[C@@H]2C [diosgenin]
- product formed from substrate (tomato GAME25 [2]): diosgen-4-en-3-one

Molecule: C[C@H]1CC[C@@H]2[C@@H](C)C3C(CC4C5CCC6=CC(=O)CCC6(C)C5CCC43C)N2C1 (stereo partly shown) [solanid-4-en-3-one]
- activity with substrate (GAME35): did not react

Molecule: C[C@H]1CC[C@@H]2[C@@H](C)[C@H]3[C@H](C[C@H]4[C@@H]5CC=C6C[C@@H](O[C@@H]7O[C@H](CO)[C@H](O[C@@H]8O[C@@H](C)[C@H](O)[C@@H](O)[C@H]8O)[C@H](O)[C@@H]7O[C@@H]7O[C@@H](C)[C@@H](O)[C@@H](O)[C@H]7O)CC[C@]6(C)[C@H]5CC[C@]34C)N2C1 [α-chaconine]
- activity with substrate / product formed (tomato GAME25 [1]): no activity
- activity with substrate / product formed (potato GAME25): no activity

Molecule: CC(C)CCC[C@@H](C)[C@H]1CC[C@H]2[C@@H]3CC=C4C[C@@H](O)CC[C@]4(C)[C@H]3CC[C@]12C [cholesterol]
- activity with substrate / product formed (tomato GAME25 [1]): not reactive
- activity with substrate / product formed (potato GAME25): not reactive

Molecule: C[C@H]1CC[C@]2(NC1)O[C@H]1C[C@H]3[C@@H]4CC[C@H]5C[C@@H](O[C@@H]6O[C@H](CO)[C@H](O[C@@H]7O[C@H](CO)[C@@H](O)[C@H](O[C@@H]8OC[C@@H](O)[C@H](O)[C@H]8O)[C@H]7O[C@@H]7O[C@H](CO)[C@@H](O)[C@H](O)[C@H]7O)[C@H](O)[C@H]6O)CC[C@]5(C)[C@H]4CC[C@]3(C)[C@H]1[C@@H]2C [α-tomatine]
- activity with substrate / product formed (tomato GAME25 [1]): no activity
- activity with substrate / product formed (potato GAME25): no activity
- hydroxylation of substrate (SlGAME31; absence of iron): minor amounts of hydroxytomatine were still generated
- hydroxylation of substrate (SlGAME31; [3]): forming hydroxytomatine
- hydroxylation of substrate (SlGAME31; removal of either cofactor (ketoglutaric or ascorbic acid)): lack of activity
- toxicity to animals and humans compared to SGAs possessing the C-5,6 double bond (e.g. α-chaconine and α-solanine) (animals and humans): much less toxic

Molecule: C[C@H]1CC[C@]2(NC1)O[C@H]1C[C@H]3[C@@H]4CC=C5C[C@@H](O[C@@H]6O[C@H](CO)[C@H](O[C@@H]7O[C@H](CO)[C@@H](O)[C@H](O[C@@H]8OC[C@@H](O)[C@H](O)[C@H]8O)[C@H]7O[C@@H]7O[C@H](CO)[C@@H](O)[C@H](O)[C@H]7O)[C@H](O)[C@H]6O)CC[C@]5(C)[C@H]4CC[C@]3(C)[C@H]1[C@@H]2C [dehydrotomatine]
- activity with substrate / product formed (tomato GAME25 [1]): no activity
- activity with substrate / product formed (potato GAME25): no activity
- hydroxylation of substrate (SlGAME31; [3]): did perform hydroxylation

Reference: patent publication US12129475B2, “Glycoalkaloid metabolism enyzymes (GAMES) and uses thereof” (priority 2017, dated 2024)
